Laboratory results as given in PubChem BioAssay AID1996.
In brackets after ≈: the same amount, converted by molar mass.

Settings: buffer; pH 7.4; 200.0 µM

Row | Compound | solubility kinetic
1 | Cc1cccc(C)c1NC(=O)CNC(=O)c1ccc2c(c1)NC(=O)CS2 | 41 µg/mL (≈ 111 µM)
2 | COC(=O)c1ccc(Cl)c(NC(=O)c2cccc([N+](=O)[O-])c2C)c1 | 0.7 µg/mL (≈ 2.01 µM)
3 | CC(C)[C@H](NC(=O)c1ccccc1Cl)C(=O)OCC(=O)Nc1ccc(S(=O)(=O)N2CCOCC2)cc1 | 40.3 µg/mL (≈ 74.9 µM)
4 | CCc1ccc(OS(=O)(=O)c2cn(C)c(=O)n(C)c2=O)cc1 | > 48.7 µg/mL
5 | O=C(CN1CCc2ccccc2C1)Nc1ccccc1F | 39.4 µg/mL (≈ 139 µM)
6 | CC(C)c1ccc(CNCCCSc2ncccn2)cc1.Cl | 49.1 µg/mL
7 | Cc1ccc(CC2C(=O)N(c3ccc(F)cc3)C(=O)C2C)cc1 (stereo not given) | 3.3 µg/mL (≈ 10.6 µM)
8 | CCCCCC(=O)Nc1c2c(nc3ccccc13)CCC2 | 18.7 µg/mL (≈ 66.2 µM)
9 | C/C=C/C(=O)OCc1csc(CC(=O)Nc2ccccc2C)n1 | > 49.6 µg/mL
10 | COc1ccc(C2=C(c3ccc([N+](=O)[O-])cc3)C(=O)OC2)cc1 | 3.4 µg/mL (≈ 10.9 µM)
11 | CS(=O)(=O)N(CC(=O)O)c1ccc(C23CC4CC(CC(C4)C2)C3)cc1 | 49.5 µg/mL (≈ 136 µM)
12 | COc1ccc(NC(=O)c2c(N)cnn2C)cc1 | > 36.9 µg/mL
13 | COCCN1C(=O)c2ccc(C(=O)NCc3ccco3)cc2C1=O | > 49.2 µg/mL
14 | COc1ccc(-c2cc(C(=O)Nc3ccc(OC)cc3OC)no2)cc1 | < 0.4 µg/mL
15 | CCN(C(=O)CSc1nccc(=O)[nH]1)c1cccc2ccccc12 | > 50.9 µg/mL
16 | CCCOc1ccc(NC(=O)CCC(=O)NC(C)c2ccccc2)cc1 (stereo not given) | 0.5 µg/mL (≈ 1.41 µM)
17 | Cc1nc2ccccc2c(=O)n1-c1cc(F)ccc1F | > 40.8 µg/mL
18 | S=C(NCCCN1CCOCC1)Nc1cccc(Cl)c1 | > 47.1 µg/mL
19 | CC(C)CC(=O)Nc1cc2c3c(c1)CCN3C(=O)CC2 | > 40.9 µg/mL
20 | O=C(NC1CCN(C(=S)NCCc2ccccc2)CC1)C1CC1 | 10.7 µg/mL (≈ 32.3 µM)

Row | Compound | solubility kinetic
21 | CC(C)COc1ccc(CNC(=S)Nc2ccccc2)cc1Cl | < 0.4 µg/mL
22 | O=c1[nH]c2ccc(NC(=S)NCc3ccccc3)cc2[nH]1 | 7.6 µg/mL (≈ 25.5 µM)
23 | CC(C)n1c(C(F)(F)F)nc2cc(C(=O)N3CCOCC3)ccc21 | > 51.2 µg/mL
24 | CCOC(=O)CCn1cnc2ccc([N+](=O)[O-])cc2c1=O | 25.2 µg/mL (≈ 86.5 µM)
25 | Cl.O=C(CN1CCCCC1)c1ccc2c(c1)OCO2 | > 42.6 µg/mL
26 | O=S(=O)(NCc1ccccc1)c1ccc2ccccc2c1 | 1.1 µg/mL (≈ 3.7 µM)
27 | CCOc1ccc2nc(NCCNC(=O)C(C)(C)C)c(C)cc2c1 | 47.1 µg/mL (≈ 143 µM)
28 | CCC(C)NC(=O)c1ccc(C(=O)c2ccccc2)cc1 (stereo not given) | 41.6 µg/mL (≈ 148 µM)
29 | Cc1cc(SCc2ccc(C(F)(F)F)cc2)nc(=O)[nH]1 | 7.5 µg/mL (≈ 25 µM)
30 | Cc1nc(/C(N)=N/OC(=O)c2cccc(Cl)c2)c(C(F)(F)F)o1 | > 52.2 µg/mL
31 | O=C1NCCN1CCN1C(=O)c2ccccc2NC1c1ccccc1 (stereo not given) | > 50.5 µg/mL
32 | COc1ccc2c(CC(=O)OCC(=O)NC(N)=O)coc2c1 | 18.1 µg/mL (≈ 59.1 µM)
33 | CCc1cc(SC#N)cc(C)c1N | 25.6 µg/mL (≈ 133 µM)
34 | Cc1cc(NCc2ccc(F)cc2)nc2cc(Cl)ccc12 | 0.8 µg/mL (≈ 2.66 µM)
35 | O=C(Nc1ccc2ncccc2c1)c1cccc(Br)c1 | 2.5 µg/mL (≈ 7.64 µM)
36 | O=C(NCCc1ccccc1)C(=S)N1CCCCC1 | > 41.5 µg/mL
37 | COC(=O)c1cc(CNC(=O)C2CC(=O)N(c3ccc4c(c3)OCCO4)C2)ccc1OC (stereo not given) | 64.7 µg/mL (≈ 147 µM)
38 | Cc1ccccc1-n1nc2c(c1NC(=O)CC(C)C)CS(=O)C2 (stereo not given) | > 49.7 µg/mL
39 | O=C1NC(C(=O)O)=CC(c2ccc([N+](=O)[O-])cc2)N1 (stereo not given) | > 39.5 µg/mL
40 | Cc1ncc2c(n1)-c1cc(F)ccc1SC2 | 28.9 µg/mL (≈ 124 µM)

Row | Compound | solubility kinetic
41 | CC(CCc1ccccc1)NC(=O)CSc1cccc[n+]1[O-] (stereo not given) | 40.6 µg/mL (≈ 128 µM)
42 | CN(C)C(CNC(=O)C1CCCN1C(=O)c1cccs1)c1ccccc1 (stereo not given) | > 55.7 µg/mL
43 | O=C(O)Cn1c(Cc2ccccc2)nc2ccccc21 | 22.4 µg/mL (≈ 84.1 µM)
44 | COc1ccc(C(=O)O)cc1S(=O)(=O)N1CCCc2ccccc21 | > 52.1 µg/mL
45 | CC(NC(=O)c1ccco1)c1ccc(-n2ccnc2)cc1 (stereo not given) | > 42.2 µg/mL
46 | CN(C)CC(O)CN(c1ccccc1)c1ccccc1 (stereo not given) | > 40.6 µg/mL
47 | CC(SCc1ccccc1)C(=O)Nc1ccccc1F (stereo not given) | 35.1 µg/mL (≈ 121 µM)
48 | CSc1nc2ccc(NC(=O)c3cccs3)cc2s1 | 2.7 µg/mL (≈ 8.81 µM)
49 | Cc1ccccc1Sc1ccc([N+](=O)[O-])cn1 | 7.4 µg/mL (≈ 30 µM)
50 | Cc1ccc(S(=O)(=O)N2CCCCC2)cc1NC(=O)C1CCC1 | 16.4 µg/mL (≈ 48.7 µM)
51 | Nc1c2c(nn1-c1ccccc1)CCC2 | > 29.9 µg/mL
52 | CCSC1=NCCN1C(=O)c1c(-c2ccccc2Cl)noc1C | > 52.5 µg/mL
53 | Cc1ccc(S(=O)(=O)NCc2ccccc2)cc1 | 25.9 µg/mL (≈ 99.1 µM)
54 | CCOC(=O)C1=C(N)OC2=C(C(=O)CCC2)C12C(=O)N(C)c1ccccc12 (stereo not given) | 29.1 µg/mL (≈ 79 µM)
55 | S=c1[nH]c2ccccc2n1Cc1ccccc1 | 4.8 µg/mL (≈ 20 µM)
56 | Cc1c(NC(=O)c2ccccc2NC(=O)c2ccccc2)cccc1C(=O)O | 54.5 µg/mL (≈ 146 µM)
57 | Cc1ccc(O)c(NC(=O)c2ccc3c(c2)C(=O)N(CC(C)C)C3=O)c1 | < 0.4 µg/mL
58 | COc1ccccc1NC(=O)Nc1ccc(N2CCOCC2)cc1 | 45.8 µg/mL (≈ 140 µM)
59 | Cc1cc(C)cc(OCC(=O)Nc2cnn(CCCC(=O)O)c2)c1 | > 49.7 µg/mL
60 | Cc1ccc(Nc2nc(Cl)nc(NC3CCCCC3)n2)cc1 | < 0.1 µg/mL
